Test results from patent publication US5981525A, “Indole derivatives useful in the treatment of osteoporosis” (SmithKline Beecham Corporation, priority 1995, dated 1999).
Where a name gives a salt, the structure may show the parent alone.

Tested on: osteoclast proton pump
Assay: not given
Settings: ruffled membrane vesicles from avian osteoclasts; cited from earlier work

Q: With `[Na+].[Na+].[Na+].[O]=[V]([O-])([O-])[O-]` [sodium orthovanadate] as the compound, how does the “inhibition of proton transport” value read?
A: not inhibited

Q: With `Cc1nc2c(OCc3ccccc3)cccn2c1CC#N` [SCH 28080] as the compound, how does the “inhibition of proton transport” value read?
A: not inhibited

Q: For `CO/C1=C\C(C)=C\[C@@H](C)[C@@H](O)[C@@H](C)C/C(C)=C/C=C/[C@H](OC)[C@@H]([C@@H](C)[C@@H](O)[C@H](C)[C@@]2(O)C[C@@H](O)[C@H](C)[C@@H](C(C)C)O2)OC1=O` [bafilomycin A1], which “inhibition of proton transport” value is on record?
A: inhibited

Q: Which “inhibition of proton transport” value does the source give for `C[C@@H]1O[C@@H](O[C@H]2C[C@@H](O)[C@]3(CO)[C@H]4[C@H](O)C[C@]5(C)[C@@H](C6=CC(=O)OC6)CC[C@]5(O)[C@@H]4CC[C@]3(O)C2)[C@H](O)[C@H](O)[C@H]1O` [ouabain] here?
A: not inhibited

Q: With `COc1ccc2[nH]c([S+]([O-])Cc3ncc(C)c(OC)c3C)nc2c1` (stereo not shown) [omeprazole] as the compound, how does the “inhibition of proton transport” value read?
A: not inhibited

Q: For `CCN1C(=O)C=CC1=O` [N-ethylmaleimide], which “inhibition of proton transport” value is on record?
A: inhibited

Target: bafilomycin-sensitive ATPase
Assay: Inhibition of bafilomycin-sensitive ATPase in chicken osteoclasts (ATPase assay, Pi release)
Type: biochemical
Settings: chicken osteoclast membranes
Procedure: Vesicles were prepared from medullar bone obtained from tibiae and femurs of egg-laying hens which were calcium-starved for at least 15 days. Briefly, bone fragments were scraped with a 24 scalpel blade, suspended in 40 ml of isolation medium (0.2 M sucrose, 50 mM KCl, 10 mM Hepes, 1 mM EGTA, 2 mM dithiotheitrol, pH 7.4) and filtered through a 100 μm pore size nylon mesh. The whole procedure was performed at 4° C. After homogenisation in a potter (20 strokes) in 40 ml of isolation medium an initial centrifugation (6,500×gmax 20 min) was performed to remove mitochondria and lysosomes. The supematant was centrifuged at 100,000×gmax for 1 hr and the pellet was collected in 1 ml of isolation medium, divided into 200 μl aliquots, immediately frozen in liquid nitrogen and stored at -80° C. The protein content was determined using a Biorad colourimetric kit according to Bradford [M. Bradford, Anal. Biochem., 72, 248 (1976)]. For the proton transport assay, 5-10 μl of membranes were used.
Purification of osteoclast membranes. 1 ml of crude microsomal vesicles prepared above were applied (about 0.2 ml per tube ) on the top of a sucrose step-gradient consisting of 3.5 ml of 15%, 30% and 45% (w/w) sucrose in isolation medium and centrifuged at 280,000 gmax for 2 hours (SW 41 Ti rotor). After centrifugation the 30-45% sucrose interfaces were collected, diluted approx. 20-fold in isolation medium and pelletted at 100,000 gmax for 1 hour (SW 28 rotor). The pellet was then resuspended in 1 ml of isolation medium, aliquoted and frozen in liquid N2 and stored at -80° C. until used.
Inhibition of bafilomycin-sensitive ATPase activity was assessed in purified membrane vesicles by measuring the release of inorganic phosphate (Pi) during 30 min of incubation at 37° C. in a 96-well plate either in the presence or in the absence of bafilomycin Al. The reaction medium contained 1 mM ATP, 10 mM HEPES-Tris pH 8,50 mM KCl, 5 uM valinomycin, 5 uM nigericin, 1 mM CDTA-Tris, 100 uM ammonium molybdate, 0.2 M sucrose and membranes (20 ug protein/ml). The reaction was initiated by MgSO4 (8-arm pipette) and stopped, after 30 min, by addition of 4 volumes of the malachite green reagent (96-arm pipette) prepared according to Chan [Anal. Biochem. 157, 375 (1986)]. Absorbance at 650 nm was measured after 2 min using a microplate reader. Results are expressed as μmol (Pi)×mg protein^-1 ×hour^-1 and, for each experiment, represent the mean±sem of triplicates.

Q: With `CO/C(=C\C=C\c1cc2cc(Cl)ccc2[nH]1)C(=O)N(Cc1ccccc1)CC(O)CO` (stereo not shown) [Example 20, (2Z,4E)-5-(5-Chloro-2-indolyl)-N-2,3-dihydroxypropyl-2-methoxy-N-phenylmethyl-2,4-pentadienamide] as the compound, how does the IC50 read?
A: 15 µM

Q: With `CCN(CC)CCCNC(=O)/C(=C/C=C/c1cc2cc(Cl)ccc2[nH]1)OC` [Example 26, (2Z,4E)-5-(5-Chloro-2-indolyl)-N-[3-(diethylamino)-propyl]-2-methoxy-2,4-pentadienamide] as the compound, how does the IC50 read?
A: 3 µM

Q: For `CO/C(=C\C=C\c1cc2cc(Cl)c(Cl)cc2[nH]1)C(=O)NC1CCN(C)CC1` [Example 70, (2Z,4E)-5-(5,6-Dichloro-2-indolyl)-2-methoxy-N-[4-(1-methyl)-piperidinyl]-2,4-pentadienamide], which IC50 is on record?
A: 0.12 µM

Q: Which IC50 does the source give for `CO/C(=C\C=C\c1cc2cc(Cl)ccc2[nH]1)C(=O)Nc1cccnc1` [Example 33] here?
A: 4 µM

Q: With `CCOC(=O)/C(=C/C=C/c1cc2cc(Cl)ccc2[nH]1)OCC` [Example 30, Ethyl(2Z,4E)-5-(5-chloro-2-indolyl)-2-ethoxy-2,4-pentadienoate] as the compound, how does the IC50 read?
A: 30 µM

Q: For `CO/C(=C\C=C\c1cc2cc(Cl)c(Cl)cc2[nH]1)C(=O)NCCCN1CCOCC1` [Example 51, (2Z,4E)-5-(5,6-Dichloro-2-indolyl)-N-[3-(morpholino)propyl]-2-methoxy-2,4-pentadienamide], which IC50 is on record?
A: 1.1 µM

Q: For `CO/C(=C\C=C\c1cc2cc(Cl)c(Cl)cc2[nH]1)C(=O)Nc1ncccn1` [Example 65, (2Z,4E)-5-(5,6-Dichloro-2-indolyl)-2-methoxy-N-(2-pyrimidinyl)-2,4-pentadienamide], which IC50 is on record?
A: 17 µM

Q: For `CO/C(=C\C=C\c1cc2cc(Cl)c(Cl)cc2[nH]1)C(=O)N[C@@H]1CN2CCC1CC2` [Example 50, (2Z,4E)-N-[(S)-1-Azabicyclo[2.2.2]octan-3-yl]-5-(5,6-dichloro-2-indolyl)-2-methoxy-2,4-pentadienamide], which IC50 is on record?
A: 0.62 µM

Q: With `CO/C(=C\C=C\c1cc2cc(Cl)c(Cl)cc2[nH]1)C(=O)NCCCn1ccnc1` [Example 49, (2Z,4E)-5-(5,6-Dichloro-2-indolyl)-N-[3-(1H-imidazol-1-yl)-propyl]-2-methoxy-2,4-pentadienamide] as the compound, how does the IC50 read?
A: 4 µM

Q: Which IC50 does the source give for `CO/C(=C\C=C\c1cc2cc(Cl)c(Cl)cc2[nH]1)C(=O)Nc1cccnc1` [Example 44, (2Z,4E)-5-(5,6-Dichloro-2-indolyl)-2-methoxy-N-(3-pyridyl)-2,4-pentadienamide] here?
A: 0.62 µM

Q: Which IC50 does the source give for `CO/C(=C\C=C\c1cc2cc(Cl)c(Cl)cc2[nH]1)C(=O)NCCCN1CCN(C)CC1` [Example 67, (2Z,4E)-5-(5,6-Dichloro-2-indolyl)-2-methoxy-N-[3-[1-(4-methyl)piperazinyl]-propyl]-2,4-pentadienamide] here?
A: 1.3 µM

Q: For `CO/C(=C\C=C\c1cc2cc(Cl)c(Cl)cc2[nH]1)C(=O)NC1CC2CCC(C1)N2C` (stereo not drawn) [Example 66, (2Z,4E)-6-(5,6-dichloro-2-indolyl)-N-[8-methyl-8-azabicyclo[3.2.1]oct-3β-yl]-2-methoxy-2,4-pentadienamide], which IC50 is on record?
A: 0.1 µM

Q: Which IC50 does the source give for `CO/C(=C\C=C\c1cc2cc(Cl)c(Cl)cc2[nH]1)C(=O)NCCC1CCCN1C` (stereo not shown) [Example 54, (2Z,4E)-5-(5,6-Dichloro-2-indolyl)-2-methoxy-N-[2-[2-(1-methyl)pyrrolidinyl]ethyl]-2,4-pentadienamide] here?
A: 0.34 µM

Q: For `CO/C(=C\C=C\c1cc2cc(Cl)ccc2[nH]1)C(=O)NCc1ccc(N)cc1` [Example 37], which IC50 is on record?
A: 30 µM

Q: Which IC50 does the source give for `CO/C(=C\C=C\c1cc2cc(Cl)ccc2[nH]1)C(=O)NCc1cccnc1` [Example 15, (2Z,4E)-5-(5-Chloro-2-indolyl)-2-methoxy-N-(3-pyridylmethyl)-2,4-pentadienamide] here?
A: 22 µM

Q: With `CO/C(=C\C=C\c1cc2cc(Cl)c(Cl)cc2[nH]1)C(=O)NCCCN(CC(=O)O)CC(=O)O` [Example 45, hydrochloride] as the compound, how does the IC50 read?
A: 14 µM

Q: Which IC50 does the source give for `CO/C(=C\C=C\c1cc2cc(Cl)c(Cl)cc2[nH]1)C(=O)Nc1ncnc2[nH]ncc12` [Example 71, (2Z,4E)-5-(5,6-Dichloro-2-indolyl)-2-methoxy-N-(1H-pyrazolo[3,4-d]pyrimidin-4-yl)-2,4-pentadienamide] here?
A: 0.53 µM

Q: With `CO/C(=C\C=C\c1cc2cc(Cl)c(Cl)cc2[nH]1)C(=O)NC1CC(C)(C)NC(C)(C)C1` [Example 56, (2Z,4E)-5-(5,6-Dichloro-2-indolyl)-2-methoxy-N-[4-(2,2,6,6-tetramethyl)piperidinyl]-2,4-pentadienamide] as the compound, how does the IC50 read?
A: 0.07 µM

Q: Which IC50 does the source give for `CO/C(=C\C=C\c1cc2cc(Cl)c(Cl)cc2[nH]1)C(=O)NN1CCN(C)CC1` [Example 60, (2Z,4E)-5-(5,6-Dichloro-2-indolyl)-2-methoxy-N-[1-(4-methylpiperazinyl)]-2,4-pentadienamide] here?
A: 0.85 µM

Q: For `COC(=O)/C(=C/C=C/c1cc2cc(Cl)c(Cl)cc2[nH]1)OC` [Example 6, Methyl (2Z,4E)-5-(5,6-dichloro-2-indolyl)-2-methoxy-2,4-pentadienoate], which IC50 is on record?
A: 1.1 µM

Q: With `CCN(CCCNC(=O)/C(=C/C=C/c1cc2cc(Cl)c(Cl)cc2[nH]1)OC)Cc1ccccc1` [Example 62] as the compound, how does the IC50 read?
A: 1.4 µM

Q: For `CO/C(=C\C=C\c1cc2cc(Cl)c(Cl)cc2[nH]1)C(=O)NCCCN1CCCCC1C` (stereo not shown) [Example 59, (2Z,4E)-5-(5,6-Dichloro-2-indolyl)-2-methoxy-N[3-[1-(2-methyl)piperidin-yl]-propyl]-2,4-pentadienamide], which IC50 is on record?
A: 0.13 µM

Q: For `CO/C(=C\C=C\c1cc2cc(Cl)c(Cl)cc2[nH]1)C(=O)NCCN1CCCCC1` [Example 53, (2Z,4E)-5-(5,6-Dichloro-2-indolyl)-N-[2-(1-piperidinyl)-ethyl]-2-methoxy-2,4-pentadienamide], which IC50 is on record?
A: 1.2 µM

Q: With `CCN(CC)CCNC(=O)/C(=C/C=C/c1cc2cc(Cl)c(Cl)cc2[nH]1)OC` [Example 46, (2Z,4E)-5-(5,6-Dichloro-2-indolyl)-N-[2-(diethylamino)-ethyl]-2-methoxy-2,4-pentadienamide] as the compound, how does the IC50 read?
A: 0.59 µM

Q: Which IC50 does the source give for `CO/C(=C\C=C\c1cc2cc(Cl)c(Cl)cc2[nH]1)C(=O)Nc1ccc(OC)nc1` [Example 57, (2Z,E)-5-(5,6-Dichloro-2-indolyl)-2-methoxy-N-[5-(2-methoxy)pyridyl]-2,4-pentadienamide] here?
A: 1.6 µM

Q: With `COC(=O)/C(=C/C=C/c1cc2cc(Cl)ccc2[nH]1)OC` [Example 4, Methyl (2Z,4E)-5-(5-chloro-2-indolyl)-2-methoxy-2,4-pentadienoate] as the compound, how does the IC50 read?
A: 7 µM

Q: For `CCN(CC)CCCNC(=O)/C(=C/C=C/c1cc2cc(Cl)c(Cl)cc2[nH]1)OC` [Example 34, (2Z,4E)-5-(5,6-Dichloro-2-indolyl)-N-[3-(diethylamino)-propyl]-2-methoxy-2,4-pentadienamide], which IC50 is on record?
A: 0.17 µM

Tested on: osteoclast cultures
Assay: not given
Settings: cited from earlier work

Q: For `CO/C1=C\C(C)=C\[C@@H](C)[C@@H](O)[C@@H](C)C/C(C)=C/C=C/[C@H](OC)[C@@H]([C@@H](C)[C@@H](O)[C@H](C)[C@@]2(O)C[C@@H](O)[C@H](C)[C@@H](C(C)C)O2)OC1=O` [bafilomycin A1], which “inhibition of bone resorption” value is on record?
A: inhibit bone resorption
